Laboratory results from US20130131126A1, “DERIVATIVES OF 1,4-DIHYDROPYRIDINE POSSESSING ANTIVIRAL EFFICACY” (JSC Grindeks, priority 2010, published 2013).

What follows are compounds tested on influenza virus (H3N2) (assay: Antiviral efficacy against influenza virus on MDCK cell line in vitro). Conditions: MDCK cells infected with influenza virus (H3N2); compound present from 1 hour after infection until end of culture; over a wide concentration range.
Type: cell-based

Row | SMILES | antiviral efficacy against influenza
1 | COC(=O)C1C(C(=O)OCC(=O)[O-])=C(C)NC(C)=C1C(=O)OCC(=O)[O-].[Na+].[Na+] [disodium 2,6-dimethyl-1,4-dihydropyridine-4-methoxycarbonyl-3,5-bis-(carbonyloxyacetate)] | effective against influenza
2 | CCOC(=O)C1=C(C)NC(C)=C(C(=O)OCC(=O)[O-])C1.[Na+] [sodium 2,6-dimethyl-3-ethoxycarbonyl-1,4-dihydropyridine-5-carbonyloxyacetate] | effective against influenza
3 | COC(=O)C1=C(C)NC(C)=C(C(=O)OCC(=O)[O-])C1.[Na+] [sodium 2,6-dimethyl-3-methoxycarbonyl-1,4-dihydropyridine-5-carbonyloxyacetate] | effective against influenza
